# Like-named read-outs stand apart in the source and are kept apart here.
# What was measured:
# Test in all cases: MIC of compounds alone and combined with antibacterials, broth microdilution (CLSI)
# Type in all cases: cell-based
# [1] = test system: Citrobacter freundii (CFR) isolates
# In short: (§1)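 Broth microdilution in cation-adjusted Mueller-Hinton broth, inoculum 5.10^5 CFU/mL, 16-20 h at 35° C in ambient air, on genotyped isolates. Compound MIC, alone or with an antibacterial, taken visually as lowest concentration preventing growth; antibacterial MIC determined at each compound concentration.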
# [2] = test system: Klebsiella oxytoca (KOX) isolates
# In short: as §1
# [3] = test system: Klebsiella pneumoniae (KPN) isolates
# In short: as §1
# [4] = test system: Providencia rettgeri (PRE) isolates
# In short: as §1
# [5] = test system: Serratia marcescens (SMA) isolates
# In short: as §1
compound,measurement,setting,value
"CO/N=C(\C(=O)N[C@@H]1C(=O)N2C(C(=O)O)=C(COC(N)=O)CS[C@H]12)c1ccco1 [FUR, Cefuroxime]",MIC,"[1]; strain CFR UFR10, genotype OXA-48",>256 µg/mL
same,MIC,"[1]; strain CFR UFR11, genotype TEM-1, OXA-1, OXA-48",>256 µg/mL
same,MIC,"[1]; strain CFR UFR83, genotype TEM-3, AmpC",>256 µg/mL
same,MIC,"[1]; strain CFR UFR146, genotype TEM-1, KPC-2",>256 µg/mL
same,MIC,"[1]; strain CFR UFR248, genotype CTX-M-15",>256 µg/mL
same,MIC,"[1]; strain CFR UFR249, genotype TEM-1, CTX-M-15",>256 µg/mL
same,MIC,"[1]; strain CFR UFR250, genotype TEM-1, SHV-28, CTX-M-15",>256 µg/mL
same,MIC,"[1]; strain CFR UFR253, genotype TEM-1, SHV-12, OXA-48",32 µg/mL
same,MIC,"[1]; strain CFR UFR254, genotype VEB-1b, OXA-48, qnrA",32 µg/mL
same,MIC,"[2]; strain KOX UFR21, genotype TEM-1, CTX-M-15, OXA-48",>256 µg/mL
same,MIC,"[2]; strain KOX UFR173, genotype OXY2-2",>256 µg/mL
same,MIC,"[2]; strain KOX UFR223, genotype SHV-11, OXA-48",8 µg/mL
same,MIC,"[2]; strain KOX UFR224, genotype CTX-M-15, OXA-48",>256 µg/mL
same,MIC,"[3]; strain KPN 6299, genotype TEM-1, SHV-11, OXA-163",>512 µg/mL
same,MIC,"[3]; strain KPN 110376, genotype TEM-1, SHV-1, CTX-M-15, OXA-1, OXA-48",>256 µg/mL
same,MIC,"[3]; strain KPN 121206, genotype SHV-1, NDM-1",>256 µg/mL
same,MIC,"[3]; strain KPN 131119, genotype TEM-1, SHV-11, CTX-M-15, OXA-1, OXA-48",>256 µg/mL
same,MIC,"[3]; strain KPN 140513, genotype TEM-1, SHV-11, CTX-M-15, KPC-3",>256 µg/mL
same,MIC,"[3]; strain KPN 160143, genotype TEM-1, SHV-1, CTX-M-15, KPC-2, OXA-1",>256 µg/mL
same,MIC,"[3]; strain KPN 190128, genotype TEM-1, SHV-32, CTX-M-15, OXA-1",>256 µg/mL
same,MIC,"[3]; strain KPN 190270, genotype TEM-1, SHV-76, CTX-M-15, OXA-1",>256 µg/mL
same,MIC,"[3]; strain KPN 190425, genotype TEM-1, SHV-1, CTX-M-15, OXA-1",>256 µg/mL
same,MIC,"[3]; strain KPN 190551, genotype TEM-1, SHV-1, CTX-M-15, OXA-1",>256 µg/mL
same,MIC,"[3]; strain KPN 200047, genotype TEM-1, SHV-32, CTX-M-15, OXA-1",>256 µg/mL
same,MIC,"[3]; strain KPN 200327, genotype TEM-1, SHV-1, CTX-M-15, OXA-1",>256 µg/mL
same,MIC,"[3]; strain KPN 260251, genotype TEM-1, SHV-11, SHV-12, CTX-M-15, KPC-2",>256 µg/mL
same,MIC,"[3]; strain KPN 260252, genotype TEM-1, SHV-11, KPC-3",>256 µg/mL
same,MIC,"[3]; strain KPN 260376, genotype SHV-1, SHV-49, OXA-1",>256 µg/mL
same,MIC,"[3]; strain KPN 270077, genotype TEM-1, SHV-1, CTX-M-15",>256 µg/mL
same,MIC,"[3]; strain KPN 700603, genotype SHV-18, OXA-2",32 µg/mL
same,MIC,"[3]; strain KPN ARA, genotype TEM-1, SHV-11, CTX-M-15, OXA-1, OXA-48",>256 µg/mL
same,MIC,"[3]; strain KPN BAA-1898, genotype TEM-1, SHV-11, SHV-12, KPC-2",>512 µg/mL
same,MIC,"[3]; strain KPN LIB, genotype SHV-11, OXA-48",16 µg/mL
same,MIC,"[3]; strain KPN UFR22_O, genotype TEM-1, SHV-1, OXA-48",32 µg/mL
same,MIC,"[3]; strain KPN UFR23, genotype TEM-1, SHV-1, OXA-48",8 µg/mL
same,MIC,"[3]; strain KPN UFR24, genotype TEM-1, SHV-2, SHV-11, OXA-1, OXA-48, OXA-47",128 µg/mL
same,MIC,"[3]; strain KPN UFR25, genotype TEM-1, SHV-11, CTX-M-15, OXA-162",>256 µg/mL
same,MIC,"[3]; strain KPN UFR27, genotype TEM-1, SHV-28, CTX-M-15, OXA-204",>256 µg/mL
same,MIC,"[3]; strain KPN UFR28, genotype TEM-1, SHV-1, CTX-M-15, OXA-1, OXA-232",>256 µg/mL
same,MIC,"[3]; strain KPN UFR42, genotype SHV-2, CTX-M-15 OXA-1, OXA-181, NDM-1",>256 µg/mL
same,MIC,"[3]; strain KPN UFR65, genotype TEM-1, SHV-11, KPC-2",>256 µg/mL
same,MIC,"[3]; strain KPN UFR66, genotype TEM-1, SHV-11, CTX-M-15, KPC-2",>256 µg/mL
same,MIC,"[3]; strain KPN UFR67, genotype TEM-1, SHV-11, KPC-3",>256 µg/mL
same,MIC,"[3]; strain KPN UFR68, genotype TEM-1, SHV-11, CTX-M-15, KPC-3",>256 µg/mL
same,MIC,"[3]; strain KPN UFR76, genotype TEM-155, SHV-11, ACT-1, OXA-2",>256 µg/mL
same,MIC,"[3]; strain KPN UFR77, genotype CMY-2",64 µg/mL
same,MIC,"[3]; strain KPN UFR78, genotype TEM-1, SHV-1, CTX-M-15, CMY-2, OXA-1, OXA-48",>256 µg/mL
same,MIC,"[3]; strain KPN UFR79, genotype DHA-1, OXA-1",>256 µg/mL
same,MIC,"[3]; strain KPN UFR80, genotype SHV-11, DHA-1, OXA-1",32 µg/mL
same,MIC,"[3]; strain KPN UFR81, genotype TEM-1, SHV-1, DHA-1, OXA-48",>256 µg/mL
same,MIC,"[3]; strain KPN UFR215, genotype SHV-27, CTX-M-15",>256 µg/mL
same,MIC,"[3]; strain KPN UFR216, genotype SHV-28, CTX-M-15",>256 µg/mL
same,MIC,"[3]; strain KPN UFR217, genotype TEM-1, SHV-1, CTX-M-15",>256 µg/mL
same,MIC,"[3]; strain KPN UFR219, genotype SHV-12, CTX-M-15",>256 µg/mL
same,MIC,"[3]; strain KPN UFR220, genotype TEM-1, SHV-12, DHA-1",>256 µg/mL
same,MIC,"[3]; strain KPN UFR221, genotype TEM-1, SHV-11, CTX-M-14, DHA-1",>256 µg/mL
same,MIC,"[3]; strain KPN UFR222, genotype DHA-2",>256 µg/mL
same,MIC,"[3]; strain KPN UFR227O, genotype TEM-x, SHV-x, CTX-M-x",>256 µg/mL
same,MIC,"[4]; strain PRE UFR99, genotype OXA-1, OXA-181",>256 µg/mL
same,MIC,"[4]; strain PRE UFR236, genotype TEM-1, OXA-48",64 µg/mL
same,MIC,"[5]; strain SMA UFR30, genotype OXA-405",>256 µg/mL
same,MIC,"[5]; strain SMA UFR134, genotype TEM-1, BES-1",>256 µg/mL
same,MIC,"[5]; strain SMA UFR135, genotype TEM-1, KPC-2",>256 µg/mL
same,MIC,"[5]; strain SMA UFR136, genotype TEM-1, SHV-12, KPC-2",>256 µg/mL
same,MIC,"[5]; strain SMA UFR137, genotype SME-1",256 µg/mL
same,MIC,"[5]; strain SMA UFR138, genotype SME-1",256 µg/mL
same,MIC,"[5]; strain SMA UFR139, genotype SME-2",>256 µg/mL
same,MIC,"[5]; strain SMA UFR141, genotype OXA-48",>256 µg/mL
same,MIC,"[5]; strain SMA UFR142, genotype OXA-48",>256 µg/mL
same,MIC,"[5]; strain SMA UFR143, genotype CTX-M-15, OXA-1, OXA-48",>256 µg/mL
same,MIC,"[5]; strain SMA UFR238, genotype OXA-48",>256 µg/mL
same,MIC,"[5]; strain SMA UFR239, genotype ESAC",256 µg/mL
"COCC1=C(C(=O)O)N2C(=O)[C@@H](NC(=O)/C(=N\OC)c3csc(N)n3)[C@H]2SC1 [POD, Cefpodoxime]",MIC,"[1]; Citrobacter freundii, strain CFR UFR253, genotype TEM-1, SHV-12, OXA-48, read-out: MIC",32 µg/mL
same,MIC,"[1]; Citrobacter freundii, strain CFR UFR254, genotype VEB-1b, OXA-48, qnrA, read-out: MIC",32 µg/mL
same,MIC,"[2]; Klebsiella oxytoca, strain KOX UFR223, genotype SHV-11, OXA-48, read-out: MIC",0.5 µg/mL
same,MIC,"[3]; Klebsiella pneumoniae, BAA1898, strain KPN BAA-1898, genotype TEM-1, SHV-11, SHV-12, KPC-2, read-out: MIC",> 512 µg/mL
same,MIC,"[3]; Klebsiella pneumoniae, strain KPN 6299, genotype TEM-1, SHV-11, OXA-163, read-out: MIC",64 µg/mL
same,MIC,"[3]; Klebsiella pneumoniae, strain KPN 700603, genotype SHV-18, OXA-2, read-out: MIC",16 µg/mL
same,MIC,"[3]; Klebsiella pneumoniae, strain KPN LIB, genotype SHV-11, OXA-48, read-out: MIC",1 µg/mL
same,MIC,"[3]; Klebsiella pneumoniae, strain KPN UFR22_O, genotype TEM-1, SHV-1, OXA-48, read-out: MIC",1 µg/mL
same,MIC,"[3]; Klebsiella pneumoniae, strain KPN UFR23, genotype TEM-1, SHV-1, OXA-48, read-out: MIC",0.5 µg/mL
same,MIC,"[3]; Klebsiella pneumoniae, strain KPN UFR77, genotype CMY-2, read-out: MIC",64 µg/mL
same,MIC,"[3]; Klebsiella pneumoniae, strain KPN UFR79, genotype DHA-1, OXA-1, read-out: MIC",32 µg/mL
same,MIC,"[3]; Klebsiella pneumoniae, strain KPN UFR80, genotype SHV-11, DHA-1, OXA-1, read-out: MIC",2 µg/mL
same,MIC,"[4]; Providencia rettgeri, strain PRE UFR236, genotype TEM-1, OXA-48, read-out: MIC",64 µg/mL
same,MIC,"[5]; Serratia marcescens, strain SMA UFR30, genotype OXA-405, read-out: MIC",32 µg/mL
same,MIC,"[5]; Serratia marcescens, strain SMA UFR137, genotype SME-1, read-out: MIC",1 µg/mL
same,MIC,"[5]; Serratia marcescens, strain SMA UFR138, genotype SME-1, read-out: MIC",2 µg/mL
same,MIC,"[5]; Serratia marcescens, strain SMA UFR139, genotype SME-2, read-out: MIC",8 µg/mL
same,MIC,"[5]; Serratia marcescens, strain SMA UFR141, genotype OXA-48, read-out: MIC",8 µg/mL
same,MIC,"[5]; Serratia marcescens, strain SMA UFR142, genotype OXA-48, read-out: MIC",8 µg/mL
same,MIC,"[5]; Serratia marcescens, strain SMA UFR238, genotype OXA-48, read-out: MIC",8 µg/mL
same,MIC,"[5]; Serratia marcescens, strain SMA UFR239, genotype ESAC, read-out: MIC",16 µg/mL
